According to the NIST ThermoML archive (doi:10.1016/j.jct.2018.02.018):

Tests used:
[1] = xn = mol fraction of the nth substance listed; conditions: 100 kPa, Liquid; for speed of sound: Frequency=3 MHz, Single path-length method; for mass density: Vibrating tube method
[2] = refractive index (Na D-line) (dimensionless); xn = mol fraction of the nth substance listed; conditions: 100 kPa, Liquid, Standard Abbe refractometry

CN(C)CCCO [3-dimethylamino-1-propanol] + C[S+](C)[O-]
Conditions	mass density, [1] [kg/m3]	refractive index, [2]	speed of sound, [1] [m/s]
293.15 K, x2 = 0	885	1.437	1395.8
293.15 K, x2 = 0.0517	891	1.438	1397.6
293.15 K, x2 = 0.0986	898	1.439	1398.4
293.15 K, x2 = 0.1998	911	1.442	1401.4
293.15 K, x2 = 0.3	927	1.444	1405.2
293.15 K, x2 = 0.3998	944	1.447	1411.3
293.15 K, x2 = 0.5031	963	1.451	1418.8
293.15 K, x2 = 0.5988	983	1.455	1428.3
293.15 K, x2 = 0.6998	1007	1.46	1441.3
293.15 K, x2 = 0.7918	1032	1.465	1456
293.15 K, x2 = 0.899	1065	1.472	1478
293.15 K, x2 = 0.9494	1082	1.476	1489.6
303.15 K, x2 = 0	877	1.433	1358.8
303.15 K, x2 = 0.0517	883	1.434	1360.9
303.15 K, x2 = 0.0986	889	1.435	1361.8
303.15 K, x2 = 0.1998	903	1.437	1365.3
303.15 K, x2 = 0.3	918	1.44	1369.9
303.15 K, x2 = 0.3998	935	1.443	1375.7
303.15 K, x2 = 0.5031	954	1.447	1383.9
303.15 K, x2 = 0.5988	974	1.451	1393.6
303.15 K, x2 = 0.6998	998	1.456	1406.9
303.15 K, x2 = 0.7918	1023	1.46	1421.8
303.15 K, x2 = 0.899	1055	1.467	1444.5
303.15 K, x2 = 0.9494	1072	1.471	1455.9
313.15 K, x2 = 0	869	1.429	1322.1
313.15 K, x2 = 0.0517	875	1.43	1324.4
313.15 K, x2 = 0.0986	881	1.431	1325.4
313.15 K, x2 = 0.1998	895	1.433	1328.9
313.15 K, x2 = 0.3	910	1.436	1334.4
313.15 K, x2 = 0.3998	926	1.439	1340.7
313.15 K, x2 = 0.5031	946	1.443	1349.3
313.15 K, x2 = 0.5988	965	1.447	1359.3
313.15 K, x2 = 0.6998	989	1.451	1372.9
313.15 K, x2 = 0.7918	1013	1.456	1388.1
313.15 K, x2 = 0.899	1046	1.463	1410.9
313.15 K, x2 = 0.9494	1062	1.467	1422.3
323.15 K, x2 = 0	860	1.425	1285.7
323.15 K, x2 = 0.0517	867	1.426	1288.2
323.15 K, x2 = 0.0986	873	1.427	1289.5
323.15 K, x2 = 0.1998	886	1.429	1293.8
323.15 K, x2 = 0.3	901	1.432	1299.3
323.15 K, x2 = 0.3998	918	1.435	1306.1
323.15 K, x2 = 0.5031	937	1.439	1315.1
323.15 K, x2 = 0.5988	956	1.443	1325.5
323.15 K, x2 = 0.6998	980	1.447	1339.4
323.15 K, x2 = 0.7918	1004	1.452	1354.7
323.15 K, x2 = 0.899	1036	1.459	1377.6
323.15 K, x2 = 0.9494	1052	1.462	1389

CN(C)CCOCCO [2-(2-dimethylaminoethoxy)ethanol] + C[S+](C)[O-]
Conditions	mass density, [1] [kg/m3]	refractive index, [2]	speed of sound, [1] [m/s]
293.15 K, x2 = 0	954	1.442	1403.6
293.15 K, x2 = 0.0984	962	1.444	1410.5
293.15 K, x2 = 0.2001	971	1.447	1417.2
293.15 K, x2 = 0.2995	981	1.449	1423.8
293.15 K, x2 = 0.4021	992	1.452	1431
293.15 K, x2 = 0.4992	1003	1.455	1439.1
293.15 K, x2 = 0.6003	1017	1.458	1448.2
293.15 K, x2 = 0.7006	1033	1.462	1458.4
293.15 K, x2 = 0.795	1051	1.467	1470.1
293.15 K, x2 = 0.8997	1074	1.472	1485.1
293.15 K, x2 = 0.9505	1087	1.476	1494.1
303.15 K, x2 = 0	946	1.438	1369.9
303.15 K, x2 = 0.0984	954	1.44	1377.3
303.15 K, x2 = 0.2001	963	1.443	1384
303.15 K, x2 = 0.2995	972	1.445	1390.2
303.15 K, x2 = 0.4021	983	1.448	1397.7
303.15 K, x2 = 0.4992	995	1.451	1405.5
303.15 K, x2 = 0.6003	1008	1.454	1414.5
303.15 K, x2 = 0.7006	1024	1.458	1425.1
303.15 K, x2 = 0.795	1041	1.462	1436.6
303.15 K, x2 = 0.8997	1064	1.468	1451.1
303.15 K, x2 = 0.9505	1077	1.471	1460.6
313.15 K, x2 = 0	938	1.435	1336.8
313.15 K, x2 = 0.0984	946	1.437	1344.1
313.15 K, x2 = 0.2001	954	1.439	1350.8
313.15 K, x2 = 0.2995	964	1.441	1357.1
313.15 K, x2 = 0.4021	975	1.444	1364.6
313.15 K, x2 = 0.4992	986	1.447	1372.4
313.15 K, x2 = 0.6003	999	1.45	1381.3
313.15 K, x2 = 0.7006	1015	1.454	1391.4
313.15 K, x2 = 0.795	1032	1.458	1403.2
313.15 K, x2 = 0.8997	1054	1.464	1417.6
313.15 K, x2 = 0.9505	1067	1.467	1427
323.15 K, x2 = 0	930	1.431	1303.9
323.15 K, x2 = 0.0984	937	1.433	1311.2
323.15 K, x2 = 0.2001	946	1.435	1318
323.15 K, x2 = 0.2995	955	1.437	1324.2
323.15 K, x2 = 0.4021	966	1.439	1331.8
323.15 K, x2 = 0.4992	977	1.442	1339.5
323.15 K, x2 = 0.6003	991	1.446	1348.4
323.15 K, x2 = 0.7006	1006	1.45	1358.4
323.15 K, x2 = 0.795	1023	1.454	1370.1
323.15 K, x2 = 0.8997	1045	1.459	1384.4
323.15 K, x2 = 0.9505	1057	1.461	1393.6

NCc1ccccc1 [benzylamine] + C[S+](C)[O-]
Conditions	mass density, [1] [kg/m3]	refractive index, [2]	speed of sound, [1] [m/s]
293.15 K, x2 = 0	983	1.544	1579.7
293.15 K, x2 = 0.1031	992	1.54	1578.5
293.15 K, x2 = 0.1998	1001	1.536	1575.9
293.15 K, x2 = 0.2979	1011	1.532	1571.1
293.15 K, x2 = 0.399	1021	1.526	1565.5
293.15 K, x2 = 0.4991	1032	1.52	1558.8
293.15 K, x2 = 0.5886	1043	1.515	1551.6
293.15 K, x2 = 0.6999	1056	1.507	1540.9
293.15 K, x2 = 0.8029	1070	1.498	1530
293.15 K, x2 = 0.8991	1084	1.49	1517.7
293.15 K, x2 = 0.9493	1092	1.485	1510.6
303.15 K, x2 = 0	974	1.539	1540.2
303.15 K, x2 = 0.1031	983	1.535	1539.3
303.15 K, x2 = 0.1998	992	1.531	1536.1
303.15 K, x2 = 0.2979	1002	1.527	1533.5
303.15 K, x2 = 0.399	1012	1.522	1527.6
303.15 K, x2 = 0.4991	1023	1.516	1521.6
303.15 K, x2 = 0.5886	1033	1.51	1514.9
303.15 K, x2 = 0.6999	1047	1.502	1504.8
303.15 K, x2 = 0.8029	1061	1.494	1494.9
303.15 K, x2 = 0.8991	1075	1.485	1483.3
303.15 K, x2 = 0.9493	1082	1.48	1476.2
313.15 K, x2 = 0	965	1.534	1500
313.15 K, x2 = 0.1031	974	1.53	1500.2
313.15 K, x2 = 0.1998	983	1.527	1497.6
313.15 K, x2 = 0.2979	993	1.522	1494.6
313.15 K, x2 = 0.399	1003	1.517	1490.3
313.15 K, x2 = 0.4991	1014	1.511	1484.8
313.15 K, x2 = 0.5886	1024	1.505	1478.6
313.15 K, x2 = 0.6999	1038	1.498	1469.2
313.15 K, x2 = 0.8029	1051	1.489	1460
313.15 K, x2 = 0.8991	1065	1.481	1448.6
313.15 K, x2 = 0.9493	1072	1.476	1442.2
323.15 K, x2 = 0	957	1.529	1461.1
323.15 K, x2 = 0.1031	966	1.526	1461.4
323.15 K, x2 = 0.1998	974	1.522	1459.4
323.15 K, x2 = 0.2979	984	1.517	1457.4
323.15 K, x2 = 0.399	994	1.512	1453.3
323.15 K, x2 = 0.4991	1005	1.506	1448.4
323.15 K, x2 = 0.5886	1015	1.501	1442.7
323.15 K, x2 = 0.6999	1028	1.493	1434
323.15 K, x2 = 0.8029	1042	1.485	1425.3
323.15 K, x2 = 0.8991	1055	1.476	1414.6
323.15 K, x2 = 0.9493	1062	1.471	1408.5
